This is an account of results in patent publication US9555130B2, “Compositions and methods for in vivo imaging of myelin in the peripheral nervous system” (Case Western Reserve University, priority 2010, dated 2017).

Data set [1] deals with sciatic nerve (PNS myelin). In words: In vitro staining of sciatic nerve tissue sections, fluorescent microscopy. Further details: species or system wild type mouse. The conditions noted are these: tissue section of sciatic nerve with surrounding muscle; confirmed by Black and Gold staining of adjacent section. The source says: In Vitro Staining Procedure: (1) Removal of wild type mouse sciatic nerve imbedded in muscle; (2) Sectioning of muscle with nerve with cryostat; (3) Chemical staining of tissue section of sciatic nerve with muscle tissue surrounded it; (4) Observation under fluorescent microscopy; (5) A Black and Gold staining of adjacent tissue section; and (6) Observation under regular microscope.
The staining of the sciatic nerve was confirmed by the Black and Gold staining of the adjacent tissue section (see FIG. 4).

In data set [2] the test system is sciatic nerve (PNS myelin). Nature of the data set: In vivo imaging of sciatic nerve by multiphoton microscope. Further details: species or system wild type mouse. The conditions noted are these: live anesthetized mouse, exposed sciatic nerve. An excerpt:
In Vivo Staining Procedure: (1) Shave fur off region where sciatic nerve is located; (2) Cut soft tissue and muscle tissue covering sciatic nerve using surgical scissors; (3) Place animal under multiphoton microscope while anesthetized with isoflurane gas; and (4) Take live images of nerve.

The nature of data set [3]: Excitation and emission spectra (Cary Eclipse fluorescent spectrophotometer). It is filed as physicochemical. The conditions noted are these: 1 μM in DMSO. As for the experimental part:
FIG. 2 illustrates excitation and emission spectra of (E,E)-1,4-bis(4-aminostyryl)-2-dimethoxy-benzene (BDB) (1 μM in […]). Excitation spectra: emission at 510 nm (range 300-500 nm), bandwidth at 5 nm, scan at 120 nm/mm, integration time 0.5 sec. and maximal excitation wavelength at 426 nm. Emission spectra: excitation at 426 nm (range 430-650 nm), bandwidth at 5 nm, scan at 120 nm/min. integration time of 0.5 sec. and maximal emission wavelength at 506 nm.
Excitation and emission spectra of BDB (1 μM in DMSO) recorded using a Cary Eclipse fluorescent spectrophotometer (Variant Inc.; Palo Alto, Calif.) are shown in FIG. 2. Maximal excitation and emission peaks were found at 426 nm and 506 nm, respectively.

The subject of data set [4] is sciatic nerve (PNS myelin). Nature of the data set: Ex vivo staining of sciatic nerve after tail vein injection, microscope and FLI. It is filed as in vivo, wild type mouse. The note with it: post tail vein injection; tissue section under microscope. The source says: Ex Vivo Staining Procedure: (1) Injection of BDB via tail vein in wild type mouse; (2) Removal of sciatic nerve imbedded in muscle from right side; (3) Sectioning of muscle with nerve; (4) Observation of tissue under microscope to check staining; (5) Removal of left sciatic nerve from muscle; and (6) Observation of fluorescent in FLI machine.
An FLI machine picked up fluorescence from sciatic nerve placed in a tube with 4% paraformaldehyde (PFA) solution (FIG. 6).

The subject of a further data set is CNS myelin. The note with it: previously shown; cited from earlier work.
A short description of data set [5]: Solubility of BDB in organic solvents. The data set is classed as physicochemical.

As to `COc1cc(/C=C/c2ccc(N)cc2)c(OC)cc1/C=C/c1ccc(N)cc1` [BDB, (E,E)-1,4-bis(4′-aminostyryl)-2-dimethoxy-benzene], the “staining of sciatic nerve in vitro” value in data set [1] is listed as “selectively stained the sciatic nerve”. In data set [2], the “staining of intact myelin sheaths in peripheral nervous system tissue in vivo” value was “selectively stains intact myelin sheaths”. For the same molecule, in data set [3], the maximal emission peak is 506 nm and the maximal excitation peak turned out to be 426 nm. Moreover, in data set [4], the “staining of sciatic nerve ex vivo” value is reported as “successfully stained”. For the same molecule, the “binding to myelin and retention in CNS white matter” value in the data set on CNS myelin was “selectively binds to myelin and is retained in CNS white matter”. Moreover, in data set [5], the solubility entry was “soluble in CH2Cl2, DMSO, and in most other organic solvents”.
